According to ChEMBL document CHEMBL4342431, “Synthesis and antileishmanial evaluation of thiazole orange analogs” (Bioorg Med Chem Lett, 2020):
Activity calls are given as the source filed them. The calls are words filed in the database; no cut-off is given here.

Assays:
[1] = Selectivity index, ratio of IC50 for mouse peritoneal macrophages to IC50 for Leishmania donovani LV82 intracellular amastigotes; format: toxicity, cell-based; conditions: read-out: Ratio IC50
[2] = tested on: Leishmania donovani; assay: Antileishmanial activity against Leishmania donovani LV82 promastigotes infected in BALB/c mouse assessed as reduction in liver parasitemia at 1.2 mg/kg, ip administered for 5 days by Geimsa staining based assay relative to control; format: functional; set-up: scale not given: the % may be the effect or the level left
[3] = tested on: Leishmania donovani; assay: Antileishmanial activity against Leishmania donovani LV82 intracellular amastigotes infected in murine peritoneal macrophage incubated for […] by beta-lactamase reporter gene based spectrophotometry; format: functional, organism-based
[4] = tested on: J774; assay: Cytotoxicity against mouse J774 cells assessed as reduction in cell viability incubated for 72 hrs by MTT assay; format: cell-based; conditions: J774, 72 h
[5] = tested on: Leishmania donovani; assay: Antileishmanial activity against Leishmania donovani Ld1s intracellular amasitgote infected in J774 cells incubated for 72 hrs by non-radioactive cell proliferation assay; format: functional, organism-based; conditions: J774, 72 h
[6] = Selectivity index, ratio of IC for mouse J774 cells to IC50 for Leishmania donovani Ld1s promastigotes; format: toxicity; conditions: J774 cells versus Leishmania donovani Ld1s promastigotes, read-out: Ratio IC50
[7] = Binding affinity to 5'-dCCAAAAGTTTTG CTCT CAAAACTTTTGG-3' DNA (unknown origin) assessed as change in melting temperature at 2:1 ligand and DNA by specrophotometry
[8] = Binding affinity to 5'-dCCAAAATTTTG CTCT CAAAATTTTGG-3' DNA (unknown origin) assessed as change in melting temperature at 2:1 ligand and DNA by specrophotometry
[9] = tested on: Leishmania donovani; assay: Antileishmanial activity against Leishmania donovani LV82 amastigotes infected in mouse peritoneal microphage incubated for 72 hrs by DAPI staining based assay; format: functional, organism-based; conditions: LV82, 72 h
[10] = Binding affinity to 5'-dCCAAAATTTTG CTCT CAAAATTTTGG-3' DNA (unknown origin) assessed as DNA intercalation incubated for 5 mins by circular dichroism method

| SMILES | selectivity ratio [1] | Activity [2] | IC50 [3] | IC50 [4] | IC50 [5] | selectivity ratio [6] | ΔTm [7] | ΔTm [8] | IC50 [9] | Activity [10] |
| --- | --- | --- | --- | --- | --- | --- | --- | --- | --- | --- |
| CN1/C(=C/c2cc[n+](C)c3ccccc23)Sc2ccccc21.Cc1ccc(S(=O)(=O)[O-])cc1 | 25 | 48% | 21 nM | – | – | – | – | – | – | – |
| COc1cccc2c(/C=C3\Sc4ccccc4N3C)cc[n+](C)c12 | – | – | – | 59 nM | 30 nM | 2 | – | – | – | – |
| CN1/C(=C/c2cc[n+](C)c3cc(-c4ccccc4)ccc23)Sc2ccccc21 | – | – | – | 69 nM | 13 nM | 5.3 | – | – | – | – |
| CN1C=CC(=Cc2sc3ccccc3[n+]2C)C=C1 | – | – | – | 2800 nM | 140 nM | 20 | < 1 °C | 1 °C | 960 nM | – |
| CN1/C(=C/c2cc[n+](C)c3cccc(-c4ccccc4)c23)Sc2ccccc21 | – | – | – | 160 nM | 42 nM | 3.8 | 2 °C | 3 °C | – | – |
| CN1C=CS/C1=C\c1cc[n+](C)c2ccccc12 | – | – | – | 1500 nM | 160 nM | 9.4 | 1 °C | 2 °C | – | – |
| Cc1cccc2c1c(/C=C1\Sc3ccccc3N1C)cc[n+]2C | – | – | – | 120 nM | 24 nM | 5 | 4 °C | 3 °C | – | – |
| CN1/C(=C/c2cc[n+](Cc3ccccc3)c3ccccc23)Sc2ccccc21 | – | – | – | 190 nM | 26 nM | 7 | – | – | – | – |
| COc1ccc2c(/C=C3\Sc4ccccc4N3C)cc[n+](C)c2c1 | – | – | – | 140 nM | 35 nM | 4 | – | – | – | – |
| CCC[n+]1ccc(/C=C2\Sc3ccccc3N2C)c2ccccc21 | – | – | – | 140 nM | 13 nM | 11 | – | – | – | – |
| CN1/C(=C/c2cc[n+](C)c3cccc(Cl)c23)Sc2ccccc21 | – | – | – | 130 nM | 16 nM | 8.1 | – | – | – | – |
| CC[n+]1ccc(/C=C2\Sc3ccccc3N2C)c2ccccc21 | – | – | – | 170 nM | 12 nM | 14 | – | – | 72 nM | – |
| COc1cc([C@@H]2c3cc4c(cc3[C@H](O)[C@H]3COC(=O)[C@H]23)OCO4)cc(OC)c1OC [PODOFILOX] | – | – | – | 23 nM | – | – | – | – | – | – |
| CN1/C(=C/c2cc[n+](C)c3cc(Cl)ccc23)Sc2ccccc21 | – | – | – | 180 nM | 34 nM | 5.3 | – | – | – | – |
| COc1ccc2c(c1)c(/C=C1\Sc3ccccc3N1C)cc[n+]2C | – | – | – | 200 nM | 28 nM | 7.1 | – | – | – | – |
| COc1cccc2c1c(/C=C1\Sc3ccccc3N1C)cc[n+]2C | – | – | – | 86 nM | 25 nM | 3.4 | – | – | – | – |
| Cc1ccc2c(c1)c(/C=C1\Sc3ccccc3N1C)cc[n+]2C | – | – | – | 200 nM | 31 nM | 6.5 | 4 °C | 5 °C | – | Active |
| Cc1ccc2c(/C=C3\Sc4ccccc4N3C)cc[n+](C)c2c1 | – | – | – | 120 nM | 37 nM | 3.2 | 4 °C | 4 °C | – | – |
| CN1/C(=C/c2cc[n+](C)c3ccccc23)Sc2ccccc21 [listing 1 of 2 here] | – | – | – | 190 nM | 14 nM | 14 | – | – | – | – |
| CN1/C(=C/c2cc[n+](C)c3ccc(Cl)cc23)Sc2ccccc21 | – | – | – | 310 nM | 31 nM | 10 | – | – | – | – |
| CN1/C(=C/c2cccc[n+]2C)Sc2ccccc21 | – | – | – | 2500 nM | 290 nM | 8.6 | < 1 °C | < 1 °C | 1700 nM | – |
| CN1/C(=C/c2cc[n+](C)c3ccc(-c4ccccc4)cc23)Sc2ccccc21 | – | – | – | 180 nM | 37 nM | 4.9 | – | – | – | – |
| N=C(N)c1ccc(OCCCCCOc2ccc(C(=N)N)cc2)cc1 [PENTAMIDINE] | – | – | – | – | 3100 nM | – | – | – | – | – |
| CN1/C(=C/c2cc[n+](C)c3ccccc23)Sc2ccccc21 [listing 2 of 2 here] | – | – | – | – | – | – | 4 °C | 4 °C | – | – |
| CN1/C(=C/c2cc[n+](C)c3c(-c4ccccc4)cccc23)Sc2ccccc21 | – | – | – | 200 nM | 24 nM | 8.3 | – | – | – | – |
| Cc1cccc2c(/C=C3\Sc4ccccc4N3C)cc[n+](C)c12 | – | – | – | 120 nM | 30 nM | 4 | 3 °C | 4 °C | – | – |
